Reference: patent US20130072430A1, “METHODS FOR TREATMENT OR PROPHYLAXIS OF KIDNEY OR LIVER DYSFUNCTION” (NPS PHARMACEUTICALS, INC., priority 2010, published 2013)

Test system: Human patients with short bowel syndrome
Experiment: Example 1: liver diagnostic biomarkers (total bilirubin, ALT, AST, ALP) in short bowel syndrome patients, every four weeks for 24 weeks
Type: in vivo
Parameters: AST (SGOT) Change from Baseline, Median / ALT (SGPT), Median / TOTAL BILIRUBIN, Median / TOTAL BILIRUBIN Change from Baseline, Median / ALT (SGPT) Change from Baseline, Median / AST (SGOT), Median: unit not given here
Conditions: 0.05 mg/kg/day
Protocol: Human patients with short bowel syndrome were divided into three groups: a control group (16 total individuals) to receive placebo, an experimental group (35 total individuals) to receive teduglutide at 0.05 mg/kg/day throughout the study, and an experimental group (32 total individuals) to receive teduglutide at 0.1 mg/kg/day throughout the study. Patients were treated by subcutaneous injection of placebo or the appropriate dose of teduglutide. As individuals with short bowel syndrome are likely to experience associated liver and kidney disease, known biomarkers of liver and kidney function were monitored every four weeks, for 24 weeks. The liver biomarkers tested included total bilirubin, ALT and AST and ALP. The kidney biomarkers tested included urea nitrogen, creatinine and GFR. Before administration of placebo or teduglutide, diagnostic biomarker levels were tested to establish a baseline for each individual.
To visualize the effect of GLP-2 on the levels of the diagnostic biomarkers, the average change from baseline was calculated for the placebo and teduglutide treated groups for each visit after a baseline was established. The average change from baseline of each group is depicted in FIGS. […]. The numerical figures for each diaanostic biomarker at each time point are depicted in Table 1.
The efficacy of teduglutide in treating liver dysfunction was further tested by sorting the data into two groups: individuals with abnormal baseline values of liver diagnostic biomarkers; and individuals with normal baseline values of liver diagnostic biomarkers. The mean diagnostic biomarker change from baseline for these two groups is shown for ALT (FIGS. 5 and 6) and AST (FIGS. 7 and 8). […] These changes were significant when compared to baseline levels for the group, and when compared to placebo (see FIGS. 5 and 7).
The raw data for this sorting is reproduced in Table 2 below.

## CC[C@H](C)[C@H](NC(=O)[C@H](Cc1ccccc1)NC(=O)[C@H](CC(=O)O)NC(=O)[C@H](CCCNC(=N)N)NC(=O)[C@H](C)NC(=O)[C@H](C)NC(=O)[C@H](CC(C)C)NC(=O)[C@H](CC(N)=O)NC(=O)[C@H](CC(=O)O)NC(=O)[C@H](CC(C)C)NC(=O)[C@@H](NC(=O)[C@@H](NC(=O)[C@H](CC(N)=O)NC(=O)[C@H](CCSC)NC(=O)[C@H](CCC(=O)O)NC(=O)[C@H](CC(=O)O)NC(=O)[C@H](CO)NC(=O)[C@H](Cc1ccccc1)NC(=O)[C@H](CO)NC(=O)CNC(=O)[C@H](CC(=O)O)NC(=O)CNC(=O)[C@@H](N)Cc1c[nH]cn1)[C@@H](C)O)[C@@H](C)CC)C(=O)N[C@@H](CC(N)=O)C(=O)N[C@@H](Cc1c[nH]c2ccccc12)C(=O)N[C@@H](CC(C)C)C(=O)N[C@H](C(=O)N[C@@H](CCC(N)=O)C(=O)N[C@H](C(=O)N[C@@H](CCCCN)C(=O)N[C@H](C(=O)N[C@H](C(=O)N[C@@H](CC(=O)O)C(=O)O)[C@@H](C)O)[C@@H](C)CC)[C@@H](C)O)[C@@H](C)CC [teduglutide]
DW4
  ALKALINE PHOSPHATASE Change from Baseline, Mean (SD): −24.8 (45.66)
  ALKALINE PHOSPHATASE Change from Baseline, Median: −16.0
  ALKALINE PHOSPHATASE, Mean (SD): 159.5 (90.91)
  ALKALINE PHOSPHATASE, Median: 139.0
  ALT (SGPT) Change from Baseline, Mean (SD): −14.9 (26.39)
  ALT (SGPT) Change from Baseline, Median: −5.0
  ALT (SGPT), Mean (SD): 30.1 (14.08)
  ALT (SGPT), Median: 27.0
  AST (SGOT) Change from Baseline, Mean (SD): −5.5 (24.09)
  AST (SGOT) Change from Baseline, Median: −4.0
  AST (SGOT), Mean (SD): 29.1 (19.23)
  AST (SGOT), Median: 27.0
  TOTAL BILIRUBIN Change from Baseline, Mean (SD): −0.8 (4.31)
  TOTAL BILIRUBIN Change from Baseline, Median: 0.0
  TOTAL BILIRUBIN, Mean (SD): 10.4 (9.48)
  TOTAL BILIRUBIN, Median: 7.0
DW8
  ALKALINE PHOSPHATASE Change from Baseline, Mean (SD): −24.0 (64.47)
  ALKALINE PHOSPHATASE Change from Baseline, Median: −20.0
  ALKALINE PHOSPHATASE, Mean (SD): 152.2 (84.05)
  ALKALINE PHOSPHATASE, Median: 134.0
  ALT (SGPT) Change from Baseline, Mean (SD): −9.8 (30.38)
  ALT (SGPT) Change from Baseline, Median: −4.0
  ALT (SGPT), Mean (SD): 37.3 (23.71)
  ALT (SGPT), Median: 31.5
  AST (SGOT) Change from Baseline, Mean (SD): −3.2 (19.88)
  AST (SGOT) Change from Baseline, Median: −3.0
  AST (SGOT), Mean (SD): 33.5 (18.56)
  AST (SGOT), Median: 28.0
  TOTAL BILIRUBIN Change from Baseline, Mean (SD): −0.4 (4.78)
  TOTAL BILIRUBIN Change from Baseline, Median: −1.0
  TOTAL BILIRUBIN, Mean (SD): 10.8 (8.86)
  TOTAL BILIRUBIN, Median: 8.0
DW12
  ALKALINE PHOSPHATASE Change from Baseline, Mean (SD): −39.4 (48.95)
  ALKALINE PHOSPHATASE Change from Baseline, Median: −24.0
  ALKALINE PHOSPHATASE, Mean (SD): 143.5 (73.92)
  ALKALINE PHOSPHATASE, Median: 130.5
  ALT (SGPT) Change from Baseline, Mean (SD): −12.7 (29.55)
  ALT (SGPT) Change from Baseline, Median: −10.0
  ALT (SGPT), Mean (SD): 34.6 (24.30)
  ALT (SGPT), Median: 26.0
  AST (SGOT) Change from Baseline, Mean (SD): −5.9 (19.28)
  AST (SGOT) Change from Baseline, Median: −8.0
  AST (SGOT), Mean (SD): 29.2 (15.48)
  AST (SGOT), Median: 26.5
  TOTAL BILIRUBIN Change from Baseline, Mean (SD): −1.8 (5.75)
  TOTAL BILIRUBIN Change from Baseline, Median: −1.0
  TOTAL BILIRUBIN, Mean (SD): 9.4 (6.65)
  TOTAL BILIRUBIN, Median: 7.0
DW16
  ALKALINE PHOSPHATASE Change from Baseline, Mean (SD): −12.3 (69.90)
  ALKALINE PHOSPHATASE Change from Baseline, Median: −20.5
  ALKALINE PHOSPHATASE, Mean (SD): 168.2 (128.08)
  ALKALINE PHOSPHATASE, Median: 134.0
  ALT (SGPT) Change from Baseline, Mean (SD): −3.2 (24.76)
  ALT (SGPT) Change from Baseline, Median: −2.5
  ALT (SGPT), Mean (SD): 39.5 (39.44)
  ALT (SGPT), Median: 28.0
  AST (SGOT) Change from Baseline, Mean (SD): −4.3 (11.75)
  AST (SGOT) Change from Baseline, Median: −1.5
  AST (SGOT), Mean (SD): 29.3 (12.05)
  AST (SGOT), Median: 25.0
  TOTAL BILIRUBIN Change from Baseline, Mean (SD): −1.3 (9.00)
  TOTAL BILIRUBIN Change from Baseline, Median: −1.0
  TOTAL BILIRUBIN, Mean (SD): 10.0 (8.90)
  TOTAL BILIRUBIN, Median: 7.0
DW20
  ALKALINE PHOSPHATASE Change from Baseline, Mean (SD): −36.9 (49.89)
  ALKALINE PHOSPHATASE Change from Baseline, Median: −25.0
  ALKALINE PHOSPHATASE, Mean (SD): 144.2 (76.09)
  ALKALINE PHOSPHATASE, Median: 136.5
  ALT (SGPT) Change from Baseline, Mean (SD): −16.0 (28.73)
  ALT (SGPT) Change from Baseline, Median: −5.0
  ALT (SGPT), Mean (SD): 29.7 (13.35)
  ALT (SGPT), Median: 26.0
  AST (SGOT) Change from Baseline, Mean (SD): −8.0 (14.96)
  AST (SGOT) Change from Baseline, Median: −4.0
  AST (SGOT), Mean (SD): 26.1 (7.02)
  AST (SGOT), Median: 25.0
  TOTAL BILIRUBIN Change from Baseline, Mean (SD): −0.8 (5.69)
  TOTAL BILIRUBIN Change from Baseline, Median: 0.0
  TOTAL BILIRUBIN, Mean (SD): 9.7 (6.78)
  TOTAL BILIRUBIN, Median: 9.0
DW24
  ALKALINE PHOSPHATASE Change from Baseline, Mean (SD): −11.6 (166.86)
  ALKALINE PHOSPHATASE Change from Baseline, Median: −29.0
  ALKALINE PHOSPHATASE, Mean (SD): 169.6 (204.22)
  ALKALINE PHOSPHATASE, Median: 131.0
  ALT (SGPT) Change from Baseline, Mean (SD): −13.5 (24.40)
